Values of other authors as cited in US20090285767A1, “USE OF OZONATED LIQUIDS AND PEROXIDES TO WHITEN TEETH” (priority 2008, published 2009).

Settings: gaseous ozone, device of the Lynch '985 patent

Structure (SMILES): O=[O+][O-] [gaseous ozone, ozone]
- whitening of extrinsic discoloration, effect on brown-colored melanoidins: ability of gaseous ozone to whiten extrinsic discoloration
